Conditions: Liquid; for mass density: Vibrating tube method

FC(F)=C(F)C(F)(F)F [hexafluoropropene]
Conditions | mass density [kg/m3] | vapor or sublimation pressure [kPa]
353.13 K, 6254.1 kPa | 1084.82 | –
353.13 K, 6293.2 kPa | 1085.83 | –
353.13 K, 6333.5 kPa | 1086.9 | –
353.13 K, 6371.8 kPa | 1087.85 | –
353.13 K, 6409 kPa | 1088.79 | –
353.13 K, 6445.8 kPa | 1089.69 | –
353.13 K, 6484.6 kPa | 1090.62 | –
353.13 K, 6524.7 kPa | 1091.6 | –
353.13 K, 6563.9 kPa | 1092.58 | –
353.13 K, 6604.4 kPa | 1093.48 | –
353.13 K, 6642.7 kPa | 1094.43 | –
353.13 K, 6683.7 kPa | 1095.45 | –
353.13 K, 6726.1 kPa | 1096.44 | –
353.13 K, 6764 kPa | 1097.33 | –
353.13 K, 6802.8 kPa | 1098.22 | –
353.13 K, 6841.6 kPa | 1099.15 | –
353.13 K, 6882 kPa | 1100.04 | –
353.13 K, 6922.2 kPa | 1101.01 | –
353.13 K, 6960.8 kPa | 1101.88 | –
353.13 K, 7001.3 kPa | 1102.71 | –
353.13 K, 7038.1 kPa | 1103.6 | –
353.13 K, 7076.1 kPa | 1104.43 | –
353.13 K, 7114.4 kPa | 1105.3 | –
353.13 K, 7154.8 kPa | 1106.21 | –
353.13 K, 7191.9 kPa | 1106.87 | –
353.13 K, 7231.5 kPa | 1107.79 | –
353.13 K, 7270.9 kPa | 1108.59 | –
353.13 K, 7309.7 kPa | 1109.52 | –
353.13 K, 7347.2 kPa | 1110.31 | –
353.13 K, 7384.6 kPa | 1111.14 | –
353.13 K, 7426.6 kPa | 1111.94 | –
353.13 K, 7521.7 kPa | 1113.95 | –
353.13 K, 7570.3 kPa | 1114.91 | –
353.13 K, 7620.7 kPa | 1116.02 | –
353.13 K, 7669.4 kPa | 1116.98 | –
353.13 K, 7719.8 kPa | 1117.99 | –
353.13 K, 7771.4 kPa | 1119.1 | –
353.13 K, 7821.6 kPa | 1120.08 | –
353.13 K, 7875 kPa | 1121.14 | –
353.13 K, 7925.8 kPa | 1122.03 | –
353.13 K, 7977.1 kPa | 1123.21 | –
353.13 K, 8027.6 kPa | 1124.05 | –
353.13 K, 8077.8 kPa | 1124.94 | –
353.13 K, 8128 kPa | 1125.99 | –
353.13 K, 8179.4 kPa | 1126.95 | –
353.13 K, 8229.7 kPa | 1127.86 | –
353.13 K, 8281.6 kPa | 1128.88 | –
353.13 K, 8333.3 kPa | 1129.8 | –
353.13 K, 8384.4 kPa | 1130.91 | –
353.13 K, 8434.2 kPa | 1131.83 | –
353.13 K, 8483.8 kPa | 1132.74 | –
353.13 K, 8533 kPa | 1133.6 | –
353.13 K, 8585.1 kPa | 1134.64 | –
353.13 K, 8636.6 kPa | 1135.48 | –
353.13 K, 8688.1 kPa | 1136.4 | –
353.13 K, 8739.4 kPa | 1137.27 | –
353.13 K, 8787.9 kPa | 1138.25 | –
353.13 K, 8838.8 kPa | 1138.97 | –
353.13 K, 8890.6 kPa | 1140.08 | –
353.13 K, 8940.9 kPa | 1140.78 | –
353.13 K, 8990.5 kPa | 1141.72 | –
353.13 K, 9042.5 kPa | 1142.55 | –
353.13 K, 9093.8 kPa | 1143.46 | –
353.13 K, 9145.5 kPa | 1144.29 | –
353.13 K, 9199.3 kPa | 1145.07 | –
353.13 K, 9251.5 kPa | 1145.95 | –
353.13 K, 9300.6 kPa | 1146.86 | –
353.13 K, 9353.4 kPa | 1147.68 | –
353.13 K, 9405.2 kPa | 1148.61 | –
353.13 K, 9453.7 kPa | 1149.26 | –
353.13 K, 9503.3 kPa | 1150.03 | –
353.13 K, 9555.6 kPa | 1150.83 | –
353.13 K, 9607.5 kPa | 1151.69 | –
353.13 K, 9658.7 kPa | 1152.54 | –
353.13 K, 9709.8 kPa | 1153.31 | –
353.13 K, 9762.3 kPa | 1154.19 | –
353.13 K, 9811.9 kPa | 1154.85 | –
353.13 K, 9863.5 kPa | 1155.62 | –
353.13 K, 9915.1 kPa | 1156.42 | –
353.13 K, 9969.2 kPa | 1157.38 | –
353.23 K, Closed cell (Static) method | – | 2782.3
355.18 K, 2917.9 kPa | 845.6 | –
355.18 K, 2920.4 kPa | 846.43 | –
355.18 K, 2923.2 kPa | 847.74 | –
355.18 K, 2925.7 kPa | 848.75 | –
355.18 K, 2927.7 kPa | 849.49 | –
355.18 K, 2929.8 kPa | 850.21 | –
355.18 K, 2931.8 kPa | 850.86 | –
355.18 K, 2933.8 kPa | 851.6 | –
355.18 K, 2936.9 kPa | 852.8 | –
355.18 K, 2939.2 kPa | 853.64 | –
355.18 K, 2941.8 kPa | 854.46 | –
355.18 K, 2944.4 kPa | 855.06 | –
355.18 K, 2946.6 kPa | 855.85 | –
355.18 K, 2948.8 kPa | 856.52 | –
355.18 K, 2952.8 kPa | 857.85 | –
355.18 K, 2960 kPa | 859.85 | –
355.18 K, 2967.7 kPa | 861.92 | –
355.18 K, 2975.4 kPa | 863.9 | –
355.18 K, 2989.1 kPa | 868.46 | –
355.18 K, 2995.9 kPa | 870.43 | –
355.18 K, 3004.5 kPa | 872.46 | –
355.18 K, 3019.2 kPa | 876.04 | –
355.18 K, 3027.3 kPa | 878.11 | –
355.18 K, 3033.9 kPa | 879.53 | –
355.18 K, 3039.9 kPa | 880.6 | –
355.18 K, 3094.7 kPa | 890.53 | –
355.18 K, 3105.5 kPa | 892.47 | –
355.18 K, 3126.6 kPa | 896.05 | –
355.18 K, 3136.9 kPa | 897.86 | –
355.18 K, 3146.9 kPa | 899.37 | –
355.18 K, 3157.8 kPa | 901.09 | –
355.18 K, 3167.8 kPa | 902.86 | –
355.18 K, 3178.7 kPa | 904.31 | –
355.18 K, 3189.5 kPa | 906.01 | –
355.18 K, 3200.1 kPa | 907.48 | –
355.18 K, 3210.7 kPa | 909 | –
355.18 K, 3221.2 kPa | 910.46 | –
355.18 K, 3231.6 kPa | 911.83 | –
355.18 K, 3252.1 kPa | 914.62 | –
355.18 K, 3263.1 kPa | 916.04 | –
355.18 K, 3273.1 kPa | 917.41 | –
355.18 K, 3283.4 kPa | 918.63 | –
355.18 K, 3294.3 kPa | 920.14 | –
355.18 K, 3304.3 kPa | 921.35 | –
355.18 K, 3325.4 kPa | 923.75 | –
355.18 K, 3347.5 kPa | 926.36 | –
355.18 K, 3368.1 kPa | 928.74 | –
355.18 K, 3388.8 kPa | 930.98 | –
355.18 K, 3410.2 kPa | 933.28 | –
355.18 K, 3453.4 kPa | 937.53 | –
355.18 K, 3496.3 kPa | 941.66 | –
355.18 K, 3516.9 kPa | 943.53 | –
